Measurements as given in US8183234B2, “Tricyclic guanidine derivatives as sodium-proton exchange inhibitors” (Piramal Life Sciences Limited, priority 2004, dated 2012).
pIC50: −log10 of the molar value. Counter-ions that a name gives are not always drawn.

Molecular target: T1, NHE-1 (Homo sapiens, UniProt P19634)
T1 construct: NHE-1 isoform which is predominantly present in human platelets; endogenous in cells; host or cells: human platelets (platelet rich plasma from blood of healthy volunteers)
Test: Primary screening assay in human platelets (acidified human platelet swelling assay)
Format: cell-based
Conditions: concentration required to inhibit 50% of NHE-1 activity in isolated human platelets; mean of three readings, PRP from three donors
Experimental: Experiments on inhibition of NHE in human platelets are based on those published in (Cardiovasc. Res. 29: 260-268, (1995), J. Med. Chem. 41, 3736-3747, (1998)) Blood (150 mL) collected in a siliconized glass bottle from healthy volunteers was treated with aqueous acid citrate dextrose (ACD) solution (25 mL) [composition: citric acid (38 mM/L), glucose (136 mM/L) and trisodium citrate (75 mM/L)] and immediately centrifuged at 200 g for 20 min. The platelet rich plasma (PRP) was separated and a platelet count carried out using a Beckman Coulter A^c T® cell counter. The cell count was adjusted to 3×10^8 platelets/mL using platelet free plasma.
Activation of Na^+/H^+ exchanger by intracellular acidification: 150 μL of PRP was added to 750 μL of propionate buffer [composition: KCl (5 mM/L), CaCl2 (1 mM/L), MgCl2 (1 mM/L), glucose (10 mM/L), HEPES (20 mM/L), sodium propionate (140 mM/L)] of pH 6.6, in a cuvette. Optical density was recorded at 630 nm using a Shimadzu spectrophotometer (UV 1601). The micromolar concentrations of a few representative compounds required to inhibit 50% of NHE-1 activity (IC50), in isolated human platelets (acidified human platelet swelling assay) is shown in Table 2. IC50 values are the mean of three experimental readings using PRP isolated from the blood of three different donors.

T1 sequence (P19634 whole entry, canonical isoform): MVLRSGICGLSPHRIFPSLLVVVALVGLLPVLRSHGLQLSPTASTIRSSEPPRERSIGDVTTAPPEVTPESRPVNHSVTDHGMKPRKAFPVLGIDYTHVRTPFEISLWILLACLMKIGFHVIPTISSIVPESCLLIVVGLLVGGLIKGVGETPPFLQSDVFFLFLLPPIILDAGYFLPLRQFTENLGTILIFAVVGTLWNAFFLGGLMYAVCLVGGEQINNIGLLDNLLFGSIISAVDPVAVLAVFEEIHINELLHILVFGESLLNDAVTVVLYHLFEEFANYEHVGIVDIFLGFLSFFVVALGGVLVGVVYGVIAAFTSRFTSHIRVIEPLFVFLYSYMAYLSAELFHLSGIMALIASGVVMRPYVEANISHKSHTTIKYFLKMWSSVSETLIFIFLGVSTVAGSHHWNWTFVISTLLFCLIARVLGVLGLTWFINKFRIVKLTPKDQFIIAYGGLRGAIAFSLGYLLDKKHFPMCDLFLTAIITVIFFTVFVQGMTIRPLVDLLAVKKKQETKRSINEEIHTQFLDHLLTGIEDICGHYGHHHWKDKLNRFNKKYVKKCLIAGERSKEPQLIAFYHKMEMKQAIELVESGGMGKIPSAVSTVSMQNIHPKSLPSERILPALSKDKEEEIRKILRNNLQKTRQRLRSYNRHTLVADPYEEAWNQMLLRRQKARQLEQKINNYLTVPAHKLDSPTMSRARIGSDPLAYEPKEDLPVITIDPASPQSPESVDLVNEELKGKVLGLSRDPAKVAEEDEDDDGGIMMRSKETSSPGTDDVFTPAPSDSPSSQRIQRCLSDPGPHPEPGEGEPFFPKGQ

pIC50	Structure (SMILES)
7.55	Cc1cc(C(=O)N=C(N)N)cc2c1Oc1c(Cl)cc(NCCn3ccnc3)cc1CS2(=O)=O [Example 64, N-[4-Chloro-2-(2-imidazol-1-yl-ethylamino)-6-methyl-10,10-dioxo-10,11-dihydro-5-oxa-10lambda*6*-thia-dibenzo[a,d]cycloheptene-8-carbonyl]-guanidine dimesylate]

System: not given
Test: not given
Conditions: not given

Structure (SMILES)	melting point
CCCCCN1CCN(c2cc(Cl)c3c(c2)CS(=O)(=O)c2cc(C(=O)NC(=N)N)cc(C)c2O3)CC1.CS(=O)(=O)O.CS(=O)(=O)O [Example 106, N-[4-Chloro-6-methyl-10,10-dioxo-2-(4-pentyl-piperazin-1-yl)-10,11-dihydro-5-oxa-10-lambda*6*-thia-dibenzo[a,d]cycloheptene-8-carbonyl]-guanidine dimesylate]	250 to 251 °C
CCN(CCN(CC)c1cc(Cl)c2c(c1)CS(=O)(=O)c1cc(C(=O)NC(=N)N)cc(C)c1O2)Cc1cccs1.CS(=O)(=O)O.CS(=O)(=O)O [Example 87, N-(4-Chloro-2-{ethyl-[2-(ethyl-thiophen-2-ylmethyl-amino)-ethyl]-amino}-6-methyl-10,10-dioxo-10,11-dihydro-5-oxa-10lambda*6*-thia-dibenzo[a,d]cycloheptene-8-carbonyl)-guanidine dimesylate]	156 to 158 °C
CS(=O)(=O)O.CS(=O)(=O)O.CS(=O)(=O)O.Cc1cc(C(=O)NC(=N)N)cc2c1Oc1c(Cl)cc(N3CCNCC3)cc1CS2(=O)=O [Example 104, N-(4-Chloro-6-methyl-10,10-dioxo-2-piperazin-1-yl-10,11-dihydro-5-oxa-10lambda*6*-thia-dibenzo[a,d]cycloheptene-8-carbonyl)-guanidine trimesylate]	203 to 205 °C
CS(=O)(=O)O.CS(=O)(=O)O.Cc1cc(C(=O)NC(=N)N)cc2c1Oc1c(Cl)cc(N(CCN3CCCC3)C(=O)OCC(C)C)cc1CS2(=O)=O [Example 74, (4-Chloro-8-guanidinocarbonyl-6-methyl-10,10-dioxo-10,11-dihydro-5-oxa-10lambda*6*-thia-dibenzo[a,d]cycloheptene-2-yl)-(2-pyrrolidin-1-yl-ethyl)-carbamic acid isobutylester dimesylate]	198 to 200 °C
CS(=O)(=O)O.N=C(N)NC(=O)c1ccc2c(c1)S(=O)(=O)Cc1c(F)cccc1O2 [Example 6, N-(1-Fluoro-10,10-dioxo-10,11-dihydro-5-oxa-10lambda*6*-thia-dibenzo[a,d]cycloheptene-8-carbonyl)-guanidine, methanesulfonic acid salt]	231 to 232 °C
Cc1cc(C(=O)N=C(N)N)cc2c1Oc1c(cccc1C(C)C)CS2(=O)=O (as salt: sulfonic acid salt) [Example 31, N-(4-Isopropyl-6-methyl-10,10-dioxo-10,11-dihydro-5-oxa-10lambda*6*-thia-dibenzo[a,d]cycloheptene-8-carbonyl)-guanidine, methane sulfonic acid salt]	252 to 253 °C
CS(=O)(=O)O.CS(=O)(=O)O.Cc1cc(C(=O)NC(=N)N)cc2c1Oc1c(Cl)cc(NCCNCCN3CCOCC3)cc1CS2(=O)=O [Example 79, N-{4-Chloro-6-methyl-2-[2-(2-morpholin-4-yl-ethylamino)-ethylamino]-10,10-dioxo-10,11-dihydro-5-oxa-10lambda*6*-thia-dibenzo[a,d]cycloheptene-8-carbonyl}-guanidine dimesylate]	255 to 256 °C
Cc1cc(C(=O)N=C(N)N)cc2c1Oc1c(Cl)cc(NCCn3ccnc3)cc1CS2(=O)=O (as salt: mesylate) [Example 64, N-[4-Chloro-2-(2-imidazol-1-yl-ethylamino)-6-methyl-10,10-dioxo-10,11-dihydro-5-oxa-10lambda*6*-thia-dibenzo[a,d]cycloheptene-8-carbonyl]-guanidine dimesylate]	243 to 244 °C
Cc1cc(C(=O)N=C(N)N)cc2c1Oc1c(Cl)cc(N)cc1CS2(=O)=O (as salt: sulfonic acid salt) [Example 35, N-(2-Amino-4-chloro-6-methyl-10,10-dioxo-10,11-dihydro-5-oxa-10lambda*6*-thia-dibenzo[a,d]cycloheptene-8-carbonyl)-guanidine, methane sulfonic acid salt]	190 to 192 °C
CCN(CCN1CCCC1)c1cc(Cl)c2c(c1)CS(=O)(=O)c1cc(C(=O)N=C(N)N)cc(C)c1O2 (as salt: mesylate) [Example 73, N-{4-Chloro-2-[ethyl-(2-pyrrolidin-1-yl-ethyl)-amino]-6-methyl-10,10-dioxo-10,11-dihydro-5-oxa-10lambda*6*-thia-dibenzo[a,d]cycloheptene-8-carbonyl}-guanidine dimesylate]	258 to 260 °C
Cc1cc(C(=O)N=C(N)N)cc2c1Oc1c(Cl)cc(S(=O)(=O)NCc3cccnc3)cc1CS2(=O)=O (as salt: mesylate) [Example 52, 4-Chloro-8-guanidinocarbonyl-6-methyl-10,10-dioxo-10,11-dihydro-5-oxa-10lambda*6*-thia-dibenzo[a,d]cycloheptene-2-sulfonic acid (pyridin-3-ylmethyl)-amide dimesylate]	271 to 273 °C
NC(N)=NC(=O)c1cc(Cl)c2c(c1)S(=O)(=O)Cc1cccc(Cl)c1O2 (as salt: sulfonic acid salt) [Example 45, 4,6-Dichloro-10,10-dioxo-10,11-dihydro-5-oxa-10lambda*6*-thia-dibenzo[a,d]cycloheptene-8-carbonylguanidine, methane sulfonic acid salt]	270 to 271 °C

Other lines, results leading:

melting point	Structure (SMILES)
292 to 294 °C	Cc1cc2c(cc1C(=O)N=C(N)N)S(=O)(=O)Cc1ccccc1N2 (as salt: sulfonic acid salt) [Example 183, N-(7-Methyl-10,10-dioxo-10,11-dihydro-5H-10lambda*6*-thia-5-aza-dibenzo[a.d]cycloheptene-8-carbonyl)-guanidine, methane sulfonic acid salt]
242 to 244 °C	Cc1cc(C(=O)N=C(N)N)cc2c1Oc1c(Cl)cc(CN)cc1CS2(=O)=O (as salt: mesylate) [Example 198, N-(2-Aminomethyl-4-chloro-6-methyl-10,10-dioxo-10,11-dihydro-5-oxa-10lambda*6*-thia-dibenzo[a.d]cycloheptene-8-carbonyl)-guanidine trimesylate]
214 to 215 °C	CS(=O)(=O)O.CS(=O)(=O)O.CS(=O)(=O)O.Cc1cc(C(=O)NC(=N)N)cc2c1Oc1c(Cl)cc(N3CCN(Cc4cccc(N)c4)CC3)cc1CS2(=O)=O [Example 127, N-{2-[4-(3-Amino-benzyl)-piperazin-1-yl]-4-chloro-6-methyl-10,10-dioxo-10,11-dihydro-5-oxa-10lambda*6*-thia-dibenzo[a,d]cycloheptene-8-carbonyl}-guanidine trimesylate]
185 to 187 °C	CS(=O)(=O)O.CS(=O)(=O)O.CS(=O)(=O)O.Cc1cc(C(=O)NC(=N)N)cc2c1Oc1c(Cl)cc(N3CCN(CCN4CCOCC4)CC3)cc1CS2(=O)=O [Example 121, N-{4-Chloro-6-methyl-2-[4-(2-morpholin-4-yl-ethyl)-piperazin-1-yl]-10,10-dioxo-10,11-dihydro-5-oxa-10lambda*6*-thia-dibenzo[a,d]cycloheptene-8-carbonyl}-guanidine trimesylate]
178 to 180 °C	CS(=O)(=O)O.CS(=O)(=O)O.Cc1cc(C(=O)NC(=N)N)cc2c1Oc1c(Cl)cc(NC(=O)CN3CCCCC3)cc1CS2(=O)=O [Example 134, N-(4-Chloro-8-guanidinocarbonyl-6-methyl-10,10-dioxo-10,11-dihydro-5-oxa-10lambda*6*-thia-dibenzo[a,d]cycloheptene-2-yl)-2-piperidin-1-yl-acetamide dimesylate]
230 to 232 °C	CS(=O)(=O)O.CS(=O)(=O)O.CS(=O)(=O)O.Cc1ccc(CNc2cc(Cl)c3c(c2)CS(=O)(=O)c2cc(C(=O)NC(=N)N)cc(C)c2O3)s1 [Example 164, N-{4-Chloro-6-methyl-2-[(5-methyl-thiophen-2-ylmethyl)-amino]-10,10-dioxo-10,11-dihydro-5-oxa-10lambda*6*-thia-dibenzo[a,d]cycloheptene-8-carbonyl}-guanidine trimesylate]
150 to 152 °C	CS(=O)(=O)O.CS(=O)(=O)O.CS(=O)(=O)O.Cc1cc(C(=O)NC(=N)N)cc2c1Oc1c(Cl)cc(N(CCN3CCCC3)C(=O)CNC3CC3)cc1CS2(=O)=O [Example 150, N-(4-Chloro-8-guanidinocarbonyl-6-methyl-10,10-dioxo-10,11-dihydro-5-oxa-10-lambda*6*-thia-dibenzo[a,d]cycloheptene-2-yl)-2-cyclopropylamino-N-(2-pyrrolidin-1-yl-ethyl)-acetamide trimesylate]
252 to 254 °C	CS(=O)(=O)O.CS(=O)(=O)O.Cc1cc(C(=O)NC(=N)N)cc2c1Oc1c(Cl)cc(NC(=O)Cn3ccnc3)cc1CS2(=O)=O [Example 137, N-(4-Chloro-8-guanidinocarbonyl-6-methyl-10,10-dioxo-10,11-dihydro-5-oxa-10lambda*6*-thia-dibenzo[a,d]cyclohepten-2-yl)-2-imidazol-1-yl-acetamide dimesylate]
